Test results reported in PubChem BioAssay AID1918991 (Molecular Pharmacology Branch, DTP, NCI, 2023).

System: 186277-243-T-J2-PDC complex spheroid growth
Assay: Anticancer human tumor 186277-243-T-J2-PDC patient-derived colon adenocarcinoma cell line growth inhibition [AhR]
Settings: for IC50: curve of first compound; for viability, T/C: stronger effect = lower value
Method in brief: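 Agents were dosed in half-log steps down from roughly clinical Cmax, or from 10 microM where Cmax was unknown, alone and with AhR antagonists. Read-out: percent test/control growth of tumor spheroids containing HUVEC and MSC stromal cells.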

[1] = second compound 0.1 µM, first compound 0.0316 µM
[2] = second compound 0.1 µM, first compound 0.1 µM
[3] = second compound 0.1 µM, first compound 0.316 µM
[4] = second compound 0.1 µM, first compound 1 µM
[5] = second compound 0.1 µM, first compound 3.16 µM
[6] = second compound 0.1 µM, first compound 10 µM
[7] = second compound 0.316 µM, first compound 0.0316 µM
[8] = second compound 0.316 µM, first compound 0.1 µM
[9] = second compound 0.316 µM, first compound 0.316 µM
[10] = second compound 0.316 µM, first compound 1 µM
[11] = second compound 0.316 µM, first compound 3.16 µM
[12] = second compound 0.316 µM, first compound 10 µM
[13] = second compound 1 µM, first compound 0.0316 µM
[14] = second compound 1 µM, first compound 0.1 µM
[15] = second compound 1 µM, first compound 0.316 µM
[16] = second compound 1 µM, first compound 1 µM
[17] = second compound 1 µM, first compound 3.16 µM
[18] = second compound 1 µM, first compound 10 µM
[19] = second compound 3.16 µM, first compound 0.0316 µM
[20] = second compound 3.16 µM, first compound 0.1 µM
[21] = second compound 3.16 µM, first compound 0.316 µM
[22] = second compound 3.16 µM, first compound 1 µM
[23] = second compound 3.16 µM, first compound 3.16 µM
[24] = second compound 3.16 µM, first compound 10 µM
[25] = second compound 10 µM, first compound 0.0316 µM
[26] = second compound 10 µM, first compound 0.1 µM
[27] = second compound 10 µM, first compound 0.316 µM
[28] = second compound 10 µM, first compound 1 µM
[29] = second compound 10 µM, first compound 3.16 µM
[30] = second compound 10 µM, first compound 10 µM
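Also: spheroids exposed to compounds for seven days before the viability read.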
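For viability, T/C in this document: luminescent signal used as a stand-in for viable cell amount; 100% = DMSO vehicle control wells.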

| IC50 (second compound 0.1 µM) [µM] | IC50 (second compound 0.316 µM) [µM] | IC50 (second compound 1 µM) [µM] | IC50 (second compound 3.16 µM) [µM] | IC50 (second compound 10 µM) [µM] | Compound | viability, T/C [1] [%] | viability, T/C [2] [%] | viability, T/C [3] [%] | viability, T/C [4] [%] | viability, T/C [5] [%] | viability, T/C [6] [%] | viability, T/C [7] [%] | viability, T/C [8] [%] | viability, T/C [9] [%] | viability, T/C [10] [%] | viability, T/C [11] [%] | viability, T/C [12] [%] | viability, T/C [13] [%] | viability, T/C [14] [%] | viability, T/C [15] [%] | other results |
| --- | --- | --- | --- | --- | --- | --- | --- | --- | --- | --- | --- | --- | --- | --- | --- | --- | --- | --- | --- | --- | --- |
| 5.86 | 5.37 | 5.56 | 5.1 | 4.12 | Nc1ccccc1NC(=O)c1ccc(CNC(=O)OCc2cccnc2)cc1 + Cc1ccccc1N=Nc1ccc(NC(=O)c2ccnn2C)c(C)c1 | 97.5 | 90 | 95.1 | 105 | 88.3 | 16.5 | 106 | 95.9 | 96.7 | 94.4 | 79 | 16.2 | 102 | 96.7 | 108 | viability, T/C [16]: 91.4%; viability, T/C [17]: 85.4%; viability, T/C [18]: 15%; viability, T/C [19]: 93.9%; viability, T/C [20]: 97.7%; viability, T/C [21]: 84.8%; viability, T/C [22]: 96.8%; viability, T/C [23]: 75.9%; viability, T/C [24]: 13.2%; viability, T/C [25]: 82.8%; viability, T/C [26]: 94.2%; viability, T/C [27]: 96.5%; viability, T/C [28]: 97.4%; viability, T/C [29]: 61.2%; viability, T/C [30]: 12.6% |
| 2.02 | 1.74 | 1.9 | 1.66 | 1.47 | O=C(C=Cc1cccc(S(=O)(=O)Nc2ccccc2)c1)NO + Cc1ccccc1N=Nc1ccc(NC(=O)c2ccnn2C)c(C)c1 | 114 | 104 | 96.2 | 88.8 | 25.4 | 4.8 | 96.7 | 114 | 101 | 74.7 | 23.2 | 4.82 | 104 | 100 | 108 | viability, T/C [16]: 84.7%; viability, T/C [17]: 22.3%; viability, T/C [18]: 4.07%; viability, T/C [19]: 91.5%; viability, T/C [20]: 114%; viability, T/C [21]: 112%; viability, T/C [22]: 74.5%; viability, T/C [23]: 18.4%; viability, T/C [24]: 3%; viability, T/C [25]: 89.8%; viability, T/C [26]: 97.8%; viability, T/C [27]: 96.5%; viability, T/C [28]: 65%; viability, T/C [29]: 18.8%; viability, T/C [30]: 3.18% |
| > 10 | > 10 | > 10 | > 10 | > 10 | O=C(c1cc(Cc2n[nH]c(=O)c3ccccc23)ccc1F)N1CCN(C(=O)C2CC2)CC1 + Cc1ccccc1N=Nc1ccc(NC(=O)c2ccnn2C)c(C)c1 | 102 | 95.4 | 95.5 | 101 | 99.2 | 123 | 94 | 111 | 97.5 | 101 | 100 | 127 | 105 | 87.3 | 110 | viability, T/C [16]: 95.1%; viability, T/C [17]: 113%; viability, T/C [18]: 127%; viability, T/C [19]: 109%; viability, T/C [20]: 96.5%; viability, T/C [21]: 104%; viability, T/C [22]: 101%; viability, T/C [23]: 106%; viability, T/C [24]: 111%; viability, T/C [25]: 85.6%; viability, T/C [26]: 86.1%; viability, T/C [27]: 101%; viability, T/C [28]: 93.3%; viability, T/C [29]: 93.6%; viability, T/C [30]: 91.6% |
